Reference: patent publication US20080255192A1, “Methods and Compositions for Selectin Inhibition” (Wyeth, priority 2007, published 2008)

Biological target: T1, P-selectin/PSGL-1 interaction (Homo sapiens, UniProt P16109)
T1 construct: comprised of the lectin and epidermal growth factor-like (EGF) domains expressed in CHO cells; made in house; host or cells: CHO cells (P-LE)
T1 sequence (P16109 42-198): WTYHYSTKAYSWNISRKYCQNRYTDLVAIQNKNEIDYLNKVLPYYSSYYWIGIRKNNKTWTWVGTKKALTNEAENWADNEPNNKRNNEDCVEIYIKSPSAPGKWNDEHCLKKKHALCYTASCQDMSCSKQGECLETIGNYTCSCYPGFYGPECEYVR
Assay: Biacore P-Selectin/PSGL-1 Inhibition Assay (surface plasmon resonance)
Type: binding
Conditions: 250 uM test compound, 500 nM P.LE, immobilized PSGL-1 19ek, 10% DMSO, pH 7.4
Procedure, shortened: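 Biotinylated monomeric human PSGL-1 "19ek" on streptavidin chip (600–700 RU); compounds preincubated 1 h, then mixed with 500 nM P-LE (lectin-EGF, CHO-expressed) at 250 or 500 μM compound, 10% DMSO, HEPES buffer with 1 mM CaCl2/MgCl2, pH 7.4. SPR at 25 °C; percent binding inhibition from double-referenced signals.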

Row | Structure (SMILES) | inhibition at 250 µM
1 | Cc1cc(C(F)(F)F)c2nc(C3(c4ccccc4)CC3)c(O)c(C(=O)O)c2c1 [Compound 101, 3-hydroxy-6-methyl-2-(1-phenylcyclopropyl)-8-(trifluoromethyl)quinoline-4-carboxylic acid] | 40%
2 | O=C(O)c1c(O)c(C2(c3ccc(Cl)cc3)CC2)nc2c(C(O)(C(F)(F)F)C(F)(F)F)cccc12 [Compound 41, 2-(1-(4-chlorophenyl)cyclopropyl)-8-(1,1,1,3,3,3-hexafluoro-2-hydroxypropan-2-yl)-3-hydroxyquinoline-4-carboxylic acid] | ≤ 10%
3 | CC(C)c1cccc2c(C(=O)O)c(O)c(C3(c4ccc(C(F)(F)F)cc4)CC3)nc12 [Compound 88, 3-hydroxy-8-isopropyl-2-(1-(4-(trifluoromethyl)phenyl)cyclopropyl)quinoline-4-carboxylic acid] | 34%
4 | O=C(O)c1c(OC(=O)N2CCOCC2)c(Cc2ccc(Cl)cc2)nc2c3c(ccc12)CCCC3 [Compound 138, 2-(4-Chlorobenzyl)-3-[(morpholin-4-ylcarbonyl)oxy]-7,8,9,10-tetrahydrobenzo[h]quinoline-4-carboxylic acid] | 16%

Second part, the molecule after the results:

Row | inhibition at 250 µM | Structure (SMILES)
5 | 49% | CC(Cc1ccccc1)c1nc2c(C(F)(F)F)cccc2c(C(=O)O)c1O (stereo not shown) [Compound 132, 3-Hydroxy-2-(1-Phenylpropan-2-yl)-8-(trifluoromethyl)quinoline-4-carboxylic acid]
6 | ≤ 10% | CC(c1ccc(Cl)cc1)c1nc2c3c(ccc2c(C(=O)O)c1O)CCCC3 (stereo not shown) [Compound 124, 2-(1-(4-chlorophenyl)ethyl)-3-hydroxy-7,8,9,10-tetrahydrobenzo[h]quinoline-4-carboxylic acid]
7 | 69% | CC(C)(c1ccccc1)c1nc2c3c(ccc2c(C(=O)O)c1O)CCCC3 [Compound 114, 3-hydroxy-2-(2-phenylpropan-2-yl)-7,8,9,10-tetrahydrobenzo[h]quinoline-4-carboxylic acid]
